1 compound from US12465605B2, “Methods and materials for gender-dependent treatment of cardiovascular dysfunction” (Mayo Foundation for Medical Education and Research, priority 2019, dated 2025) can be followed below.

One experiment concerns the target T1, sGC (Mus musculus, UniProt O54865).
T1 construct: endogenous in cells; host or cells: primary mouse aortic valve interstitial cells (mVICs) from C57BL6/J mice
T1 sequence (O54865 1-620): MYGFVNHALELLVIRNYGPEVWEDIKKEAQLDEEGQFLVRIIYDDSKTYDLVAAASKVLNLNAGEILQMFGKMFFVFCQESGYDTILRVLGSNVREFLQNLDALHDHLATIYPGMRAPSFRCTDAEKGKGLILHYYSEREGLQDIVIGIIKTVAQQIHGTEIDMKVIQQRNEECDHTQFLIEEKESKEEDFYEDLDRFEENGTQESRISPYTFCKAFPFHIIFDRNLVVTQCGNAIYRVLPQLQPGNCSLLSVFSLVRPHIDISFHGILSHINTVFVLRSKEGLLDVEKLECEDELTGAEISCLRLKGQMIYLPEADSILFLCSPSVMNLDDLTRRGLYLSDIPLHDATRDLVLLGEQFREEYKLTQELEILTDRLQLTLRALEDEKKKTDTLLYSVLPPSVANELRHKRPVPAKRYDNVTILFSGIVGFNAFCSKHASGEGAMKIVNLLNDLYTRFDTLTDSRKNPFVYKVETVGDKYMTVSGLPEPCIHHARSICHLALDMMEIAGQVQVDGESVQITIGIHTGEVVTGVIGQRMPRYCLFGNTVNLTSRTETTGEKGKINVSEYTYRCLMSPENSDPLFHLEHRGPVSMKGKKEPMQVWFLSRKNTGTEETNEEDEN
T1 sequence (Q9ERL9 1-691 partner): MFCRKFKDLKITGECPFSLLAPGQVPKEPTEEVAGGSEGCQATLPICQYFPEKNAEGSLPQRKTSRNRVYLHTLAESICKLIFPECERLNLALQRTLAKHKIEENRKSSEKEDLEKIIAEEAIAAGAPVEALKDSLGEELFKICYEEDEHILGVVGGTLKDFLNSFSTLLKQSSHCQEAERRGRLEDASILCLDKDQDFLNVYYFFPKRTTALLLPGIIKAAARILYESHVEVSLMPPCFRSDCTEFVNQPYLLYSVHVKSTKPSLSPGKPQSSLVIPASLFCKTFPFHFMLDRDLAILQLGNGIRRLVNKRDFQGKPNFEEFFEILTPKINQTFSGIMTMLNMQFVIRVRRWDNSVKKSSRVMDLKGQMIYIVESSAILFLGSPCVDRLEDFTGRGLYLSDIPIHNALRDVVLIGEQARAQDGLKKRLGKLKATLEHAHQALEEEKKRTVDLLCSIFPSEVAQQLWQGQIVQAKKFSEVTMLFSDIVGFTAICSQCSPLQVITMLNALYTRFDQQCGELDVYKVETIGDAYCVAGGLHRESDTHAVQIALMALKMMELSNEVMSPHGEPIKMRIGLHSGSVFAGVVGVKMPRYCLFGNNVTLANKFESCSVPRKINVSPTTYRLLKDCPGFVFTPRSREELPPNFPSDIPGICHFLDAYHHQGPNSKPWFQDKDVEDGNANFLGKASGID
Briefly: sGC signaling (phospho-VASP239) in mouse aortic valve interstitial cells. It is filed as cell-based. The following applies: otherwise naïve mVICs, vs vehicle-treated cells. As to the method:
To confirm that ataciguat effectively activated sGC in cells, mouse aortic valve interstitial cells (mVICs) were isolated from C57BL6/J mice treated with ataciguat or other sGC agonists as internal controls. […] To determine whether ataciguat could attenuate signaling cascades central to the initiation and progression of valve calcification in vitro, cells were treated with BMP2 with or without ataciguat. In these studies, ataciguat reduced phospho-SMAD1/5/8 signaling (e.g., canonical BMP signaling) as well as expression of osteogenic genes induced by BMP2 (e.g., osterix).

For experiment [1], the system named is LPA-induced BMP signaling. Briefly: LPA-induced BMP signaling (Osterix mRNA) in aortic valve interstitial cells. Type of experiment: cell-based. The following applies: 18:0 lyso-PA with ataciguat. As to the method: In vitro cell culture studies: Aortic valve interstitial cells were isolated using an outgrowth method, and were expanded in DMEM/F-10 medium with 10% FBS and studied in passages 2-10. Cells were treated for 24 hours under each experimental condition, at which point mRNA was harvested using lysis buffer. After mRNA isolation and reverse transcription, gene expression was measured using quantitative real-time RT-PCR and Taqman primers. Changes in gene expression were assessed by the ddCt method and expressed as fold-change normalized to control conditions.
Additional studies were conducted in aortic valve interstitial cells to examine the effects of ataciguat on LPA-induced BMP signaling and BMP target gene expression. Cells were treated with 18:0 lyso-PA, with or without ataciguat, and Osterix mRNA levels were determined.

Structures are written as SMILES.

In the case of `O=C(Nc1ccc(S(=O)(=O)N2CCOCC2)cc1)c1cc(Cl)ccc1NS(=O)(=O)c1ccc(Cl)s1` [ataciguat, 5-chloro-2-[[(5-chloro-2-thienyl)sulfonyl]amino]-N-[4-(4-morpholinylsulfonyl)phenyl]-benzamide], the “sGC-dependent signaling (phospho-VASP^239 levels)” value on sGC is on record as “significantly increased”. Also, the “LPA effect on expression of Osterix” value in experiment [1] is “dramatically suppressed”.
